Bridges are numbered along the chain shown (N, C = ends). Where no end group is shown, it is not given here.
Experiments:
Assay type in all cases: cell-based
[1] = tested on: A. flavus
Procedure: (§1) The antifungal activity was detected by a growth inhibition test in a liquid medium.
(§2) The filamentous fungi (A. fumigatus, A. flavus and A. terreus, donated by Dr. H. Koenig, Hôpital Civil, Strasbourg; and S. prolificans and F. solani donated by Drs. J. Meis and J. Mouton, University hospital, Microbioolgy Department, Nijmegen, Netherlands) were seeded on Malt-Agar slant gelose (Biomerieux) and incubated 7 days at 37° C.
(§3) The spores were then collected with 10 ml YPG medium containing 0.05% Tween 20 and filtered through a gauze. The spores were centrifuged 10 min at 1700 rpm, the residue was collected in YPG (1 g Yeast extract, 1 g Peptone, 3 g Glucose per 1 l).
(§4) The suspension was counted with a Coverslide and adjusted to 10^4 spores/ml.
(§5) 100 μl of peptide dilutions (concentration of 50 with 0.097 μg/ml peptide) were deposited in microtitration plates. 100 μl with 10^4 spores/ml of filamentous fungi, i.e. 1000 spores, were then added.
(§6) The test plates were incubated 48 h at 37° C.
(§7) Determination of minimum inhibiting concentrations (MIC) was made by observing well cover rate. The MIC score was set at 50% well covering.

[2] = tested on: Aspergillus fumigatus; test: anti-Aspergillus fumigatus growth inhibition test in liquid medium (96-well microplates); conditions: fold relative to Ard1
Procedure: The anti-Candida albicans and anti-Aspergillus fumigatus activities of the different analogues were assessed using a growth inhibition test in liquid medium made in 96-well microplates. The activity of the purified peptides was tested for different dilutions of each peptide and was compared with those of heliomycin and Ard1 quantified under the same conditions.
The spores of Aspergillus fumigatus were derived from a stock frozen at −80° C., containing 10^7 spores/ml in a 25% glycerol solution. After slow thawing at room temperature, the spores were placed in suspension in PDB culture medium (12 g Potato Dextrose Broth medium, per […] water). 10 μl of each sample were deposited in the wells of microtitration plates in the presence of 90 μl PDB culture medium supplemented with tetracycline (100 μg/ml) and cefotaxime (1 μg/ml) containing the spores (at a final concentration of 1000 spores/well). Control cultures were systematically made in which 10 μl of sample were replaced by 10 μl of sterile water. Media sterility was controlled by incubating 10 μl sterile water in the presence of 90 μl of medium. The samples were incubated at 37° C. for 24 h to 48 h in a humid atmosphere, and the antifungal activity was quantified by a score of 0 to 9 taking germination account; the size and morphology of the hyphs were determined under the binocular microscope. […].

[3] = tested on: Neurospora crassa; conditions: 48 h
Procedure: (§8) 100 μl of peptide dilutions (concentration 50 with 0.097 mg/ml peptide) were deposited in microtitration plates.
(§9) After adding 100 μl of frozen spores with 10^4 spores/ml of A. brassicola and N. crassa (donated by Dr. Bullet, IBMC, Strasbourg) the test plates were incubated 48 h at 30° C.
(§10) Determination of minimal inhibiting concentrations (MIC) was made by observing well cover rate. The MIC was set at 50% well covering.

[4] = tested on: Alternaria brassicola; conditions: 48 h
Procedure: as §8, §9, §10

[5] = tested on: C. krusei
Procedure: (§11) Candida yeasts (C. albicans, C. glabrata, C. dubliensis, C. tropicalis, C. kefyr, C. krusei and C. parapsilosis—donated by Dr. H. Koenig, Hôpital Civil, Strasbourg), fluconazole-resistant C. albicans (n^o245962, n^o2332, n^o246335 and n^o3552, donated by Drs. J.Meis and J. Mouton, University Hospital, Microbiology Department, Nijmegen, Netherlands), and Cryptoccocus neoformans (donated by Dr. H. Koenig, Hôpital Civil, Strasbourg) were seeded on Sabouraud-Cloramphenicol Agar slant gelose (Biomerieux) and left to incubate for 24 h at 30° C. (Candida sp.) and for 72 h at 37° C. (Cryptoccocus neoformans).
(§12) Some yeast colonies were placed in suspension in liquid Sabouraud medium (Biomerieux) to obtain a final concentration of 0.1 OD at 600 nm corresponding to 2.5.10^6 yeasts/ml.
(§13) The yeast suspension was adjusted to 5.10^3 yeast/ml in Sabouraud medium.
(§14) 100 μl of peptide dilutions (concentration of 50 with 0.097 μg/ml peptide) were deposited in microtitration plates. After adding […] of yeast suspension with 5.10^3 yeast/ml i.e. 500 yeasts, the test plates were incubated 24 h at 30° C. (Candida) under slow shaking or 72 h at 37° C. (Cryptoccocus).
(§15) Determination of minimal inhibiting concentrations (MIC) was made by measuring absorbency at 600 nm using a spectrophotometer-microtitration plate reader. The MIC score was set at a growth inhibition rate of 50%.

[6] = tested on: C. glabrata
Procedure: as §11, §12, §13, §14, §15

[7] = tested on: C. kefyr
Procedure: as §11, §12, §13, §14, §15

[8] = tested on: C. tropicalis
Procedure: as §11, §12, §13, §14, §15

[9] = tested on: Cryptoccocus neoformans; conditions: 72 h
Procedure: as §11, §12, §13, §14, §15

[10] = tested on: A. terreus
Procedure: as §1, §2, §3, §4, §5, §6, §7

Row | Sequence | MIC [1] | Activity A.f. (relative activity in relation to Ard1) [2] | MIC [3] | MIC [4] | MIC [5] | MIC [6] | MIC [7] | MIC [8] | MIC [9] | MIC [10]
1 | DKLIGSCVWGAVNYTSNCNAECKRRGYKGGHCGSFANVNCWCQT (disulfide 7-32, 18-40, 22-42 (inferred)) [pEM31] | >25 µg/mL | 4-8 | <0.048 µg/mL | >25 µg/mL | 3.125 µg/mL | >25 µg/mL | >25 µg/mL | 6.25 µg/mL | 12.5 µg/mL | –
2 | DKLIGSCVWGAVNYTSNCNAECKRRGYKGGHCGSFLNVNCWCET (disulfide 7-32, 18-40, 22-42 (inferred)) [pEM35] | 3.125 µg/mL | 2-4 | <0.048 µg/mL | >25 µg/mL | 1.56 µg/mL | >25 µg/mL | >25 µg/mL | 1.56 µg/mL | 6.25 µg/mL | 6.25 µg/mL
3 | DKLIGSCVWGAVNYTSNCNAECKRRGYKGGHCGSFLNVNCWCQT (disulfide 7-32, 18-40, 22-42 (inferred)) [pEM46] | – | 6-8 | 0.195 µg/mL | 25 µg/mL | 1.56 µg/mL | >25 µg/mL | >25 µg/mL | 3.125 µg/mL | 6.25 µg/mL | 6.25 µg/mL
4 | DKLIGSCVWGAVNYTSNCRAECKRRGYKGGHCGSFANVNCWCET (disulfide 7-32, 18-40, 22-42 (inferred)) [pEM51] | 6.25 µg/mL | 1 | 0.195 µg/mL | >25 µg/mL | 1.56 µg/mL | >25 µg/mL | >25 µg/mL | 3.125 µg/mL | 1.56 µg/mL | 3.125 µg/mL

Source: US20030208035A1, “Antifungal and/or antibacterial peptides, preparation methods, compositions containing same and methods of treating mammals and/or plants” (priority 2000, published 2003)
